The record followed here is patent publication US20140187556A1, “ANTI-AMYLOID COMPOUNDS AND METHODS” (Treventis Corporation, priority 2011, published 2014).

The subject of series [1] is MDR1-MDCK cell monolayers. Put plainly: Blood-brain barrier penetration potential using MDR1-MDCK cell monolayers. As to conditions: 5 μM, 120 min. Type of series: in vitro ADME. An excerpt: (§1) This assay is used to determine the blood-brain barrier (BBB) penetration potential of a test compound using MDR1-MDCK cell monolayers. Further details on this method may be found in Taub M E, et al., Functional assessment of multiple Pglycoprotein (P-gp) probe substrates: Influence of cell line and modulator concentration on P-gp activity. Drug Metab Dispos. 2005 November; 33(11): 1679-87 and Wang Q, et al., Evaluation of the MDR-MDCK cell line as a permeability screen for the blood-brain barrier. Int J. Pharm. 2005 Jan. 20; 288(2):349-59; each of which is hereby incorporated by reference. Test compound was formulated in 300 μL of DMSO at 10 mM and diluted to 5 μM in HBSSg with maximum DMSO concentration not greater than 1%. Confluent monolayers of MDR1-MDCK cells, 7 to 11 days old, were used. A receiver well, having apical and basolateral sides at pH 7.4, was used with 1% BSA in modified Hanks buffer (HBSSg). Two monolayers were dosed with test compound in each direction (N=2). Apical side dosing was used for A-B assessment and basolateral side was used for B-A assessment; taken together, this information provides a bidirectional permeability potential. Apical and basolateral sides were sampled at 120 minutes and concentrations of test compound were determined using an LC-MS/MS method with a minimum 4 point calibration curve. Apparent permeability (Papp) in both directions (A-B and B-A) was calculated, as was the efflux ratio (Papp B-A)/(Papp A-B).

Series [2] in a line: In vivo brain/plasma ratio determination in CD-1 mice. Particulars: for Mean brain/plasma ratio: 2 hours; for maximum brain/plasma ratio: day 5, once daily i.p. dosing. The procedure:
Five groups of CD-1 mice (both sexes; individual weights 20 to 40 g) were dosed intraperitoneally with different doses of TRV 1067 (0, 3, 10, 30, and 100 mg/kg). DMSO (100%) was used as a vehicle. Animals had ad libitum access to rodent chow. Some animals were euthanized 2 hours after dosing on Day 1 and brains were harvested. Blood (0.15 mL) was collected 15 minutes after dosing and at sacrifice. The remaining animals were dosed once daily for 5 consecutive days. Blood samples were collected 15 minutes after dosing on Day 1. On Day 5, blood samples were collected 15 minutes and 2 hours after dosing and brains were harvested.
Standards were prepared in CD-1 mouse plasma containing sodium heparin as an anticoagulant and CD-1 mouse brain homogenate. An eight-point calibration curve was prepared at concentrations of 1000, 500, 100, 50, 10, 5, 1, and 0.5 ng/mL by serial dilution. Standard samples were treated identically to the study samples. Brain samples were homogenized with a Virsonic 100 ultrasonic homogenizer. Each brain sample was first weighed, and then an appropriate volume of 20:80 methanol:water was added to make a 4 mL/1 g sample. Samples were then homogenized on ice, and stored frozen until analysis. Plasma and brain homogenate samples were extracted via acetonitrile precipitation on a Tomtec Quadra 96-Model 320 liquid handling system in a 96-well plate format. A Perkin Elmer series 200 micropumps and LEAP Autosampler high-performance liquid chromatograph (HPLC) was used with a 0.2% formic acid/water/acetonitrile solvent system for separation purposes. The compound was quantitated using a PE Sciex API3000 mass spectrometer connected to the HPLC; negative polarity was used, with TRV 1067 analyzed using ion settings of 347.1 mass/charge ratio for the precursor and 212.1 for the product ions, respectively. Warfarin was used in negative polarity (307.1 precursor, 250.0 product) as an internal standard.

Series [3] can be described thus: Metabolic stability in mouse liver microsomes. Type of series: in vitro ADME. As to conditions: 1 μM compound, 0.5 mg/mL microsomal protein, 1 mM NADPH. The procedure:
This assay is used to determine the percent remaining and intrinsic clearance of a test compound incubated with pooled mouse liver microsomes in the presence of NADPH. Further details on this method may be found in Jeffrey P, et al., Utility of metabolic stability screening: comparison of in vitro and in vivo clearance. enobiotica. 2001 August-September; 31(8-9):591-8 and Lin J H, et al., Role of pharmacokinetics and metabolism in drug discovery and development. Pharmacol Rev. 1997; 49(4):403-49; each of which is hereby incorporated by reference. Test compound was formulated in 300 μL of DMSO at 10 mM and was diluted to 1 μM with final concentration of organic solvent <0.25% for the experiment. Pooled liver microsomes were prepared from male mice, with 1 mM NADPH. Test compound was incubated at 37 degrees Celsius in buffer containing 0.5 mg/mL microsomal protein; the reaction was initiated by adding cofactors and sampled at 0, 10, 20, 30, and 60 minutes. A positive control (5 μM testosterone) was incubated and initiated in parallel for quality control. Samples were analyzed using an LTQ-Orbitrap XL mass spectrometer; HRMS was used to determine the peak area response ratio (peak area corresponding to test compound or control divided by that of an analytical internal standard) without running a standard curve.
Results were reported for selected compounds in the table of Example 1, as % test compound remaining after 60 minutes. Compounds which have less than about 5% remaining are not considered to be metabolically stable in mouse liver microsomes, while compounds with more than about 5% remaining are considered to be metabolically stable in mouse liver microsomes.
A general note: Liver microsomes are vesicles of endoplasmic reticulum, rich in cytochrome P450 enzymes.

Series [4] can be described thus: Blood-brain barrier penetration potential using MDR1-MDCK cell monolayers. Type of series: in vitro ADME. As to conditions: dog.
Text: as §1

In the next series the target is T1, Aβ40 (Homo sapiens, UniProt P05067).
T1 construct: pre-treated Aβ40 (40 μM in 20 mM Tris, pH 7.4)
In words: Thioflavin T (ThT) Aβ aggregation assay. Type of series: biochemical. Particulars: 20 μM Aβ40, 37 degrees C. In short, it runs like this: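 Aβ40 was HFIP-pretreated to remove preformed aggregates; 20 µM Aβ40 incubated with compound and 4 µM ThT in 20 mM Tris pH 7.4, 150 mM NaCl, 1% DMSO at 37 °C. Fluorescence (ex 450/em 480 nm) read every 15 min after shaking; inhibition judged by attenuated fluorescence rise versus DMSO controls.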

The target in the next series is alpha-synuclein (Homo sapiens, UniProt P37840). In words: alpha-synuclein aggregation assay (ThT, analogous to Example 1). Type of series: biochemical. Particulars: 10 μM compound. The procedure:
Analogous to the method of Example 1, the ability of compounds to inhibit the aggregation of alpha-synuclein was performed by substituting Aβ with alpha-synuclein.

T1 sequence (P05067 672-711 limits assumed): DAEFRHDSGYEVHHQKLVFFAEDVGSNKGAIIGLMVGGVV

As to `O=C(O)c1cccc(-c2ccc([N+](=O)[O-])c(NCc3ccccc3)c2)c1` [TRV 1067, 3′-(benzylamino)-4′-nitrophenyl-3-carboxylic acid], the “Efflux ratio (Papp B-A)/(Papp A-B)” value in series [1] amounted to 1.8. Besides, the “Papp A-B × 10^−6 cm/s” value in series [1] (apical dosing, pH 7.4) is listed as 42.1 10^−6 cm/s. For the same compound, in series [1] (basolateral dosing, pH 7.4), the “Papp B-A × 10^−6 cm/s” value is 74.9 10^−6 cm/s. For the same compound, the “blood-brain barrier crossing in vivo” value in series [2] (CD-1 mice, 3-100 mg/kg i.p.) is listed as “did not appreciably cross the blood-brain barrier”. In addition, the Mean brain/plasma ratio result in series [2] (female CD-1 mice, Day 1, 3 mg/kg intraperitoneally) was “too low to determine”; in series [2] (female CD-1 mice, Day 1, 100 mg/kg intraperitoneally) it was 0.051; in series [2] (male CD-1 mice, Day 1, 3 mg/kg intraperitoneally), “too low to determine”; in series [2] (male CD-1 mice, Day 1, 100 mg/kg intraperitoneally), 0.168. In addition, the figures for the maximum brain/plasma ratio in series [2] (female CD-1 mice) and in series [2] (male CD-1 mice) were 0.067 and 0.256, respectively.
With `O=[N+]([O-])c1ccc(-c2cccc(-c3nnn[nH]3)c2)cc1NCc1ccccc1` [TRV 1120, N-benzyl-4-nitro-3′-(1H-tetrazol-5-yl)-[1,1′-biphenyl]-3-amine], in series [3], the “Stability in mouse liver microsomes (% test compound remaining after 60 min)” value is on record as 60%. Also, the Papp A→B at 120 min, 5 µM in series [4] (MDCK-MDR1, apical dosing, pH 7.4, read-out: Papp A-B × 10^−6 cm/s) is 38.3 ×10⁻⁶ cm/s. For the same compound, the Papp B→A at 120 min, 5 µM in series [4] (MDCK-MDR1, basolateral dosing, pH 7.4, read-out: Papp B-A × 10^−6 cm/s) came to 47.4 ×10⁻⁶ cm/s. In addition, the efflux ratio at 120 min, 5 µM in series [4] (MDCK-MDR1, pH 7.4, read-out: Efflux ratio (Papp B-A)/(Papp A-B)) was found to be 1.2. Also, at Aβ40, the IC50 was determined as 1340 ± 220 nM. The “inhibition of alpha-synuclein aggregation” value against alpha-synuclein is recorded as “inhibit alpha-synuclein aggregation at 10 μM”.

In general, IC50 refers to the point on the concentration scale where inhibition reaches its midpoint.
